Test results taken from patent US8614205B2, “Glutamate receptor modulators and therapeutic agents” (priority 2009, dated 2013).
Where “and” joins values, the source holds several entries; their conditions need not be identical. Identical values can stand only once. Like-named read-outs stand apart in the source and are kept apart here.

Assays:
[1] = target: T1, mGluR1 (Homo sapiens, UniProt Q13255); assay: aequorin calcium assay, negative allosteric modulation of mGluR1; assay type: cell-based; details: thiazole derivatives of benzamide, in vitro activity; read-out: binding at mGluR1
T1 construct: expression induced with doxycycline

[2] = target: T2, mGluR5 (Homo sapiens, UniProt P41594); assay: aequorin calcium assay, negative allosteric modulation of mGluR5; assay type: cell-based
T2 construct: expression induced with doxycycline
Experimental: (§1) The ability of test compound to ameliorate the efflux of calcium cations (Ca^++) in the presence of agonist (glutamate or quisqualate) is measured by detection of light emitted by the luminescent protein aequorin triggered by binding of Ca^++. Aequorin is a photoprotein isolated from luminescent jellyfish (like various Aequorea species e.g. Aequorea victoria). Aequorin is composed of two distinct units, the apoprotein apoaequorin, with an approximate molecular weight of 22 kDa, and the prosthetic group, coelenterazine, responsible for emission of light. In the presence of molecular oxygen the two components of aequorin assemble spontaneously, forming the functional protein. Four EF-hand type regions have been identified in the structure of Aequorin and at least 3 of them function as binding sites for Ca+2 ions: Ca+2 binding to these EF hands triggers a conformational change of the protein, that leads it to oxidize its prosthetic group, coelenterazine, into excited coelenteramide and CO2. As the excited coelenteramide relaxes to the ground state, blue light (wavelength=469 nm) is emitted and can be measured by a luminometer. Negative allosteric modulator activity of test compound is expressed as a percentage of the stimulation of reference agonist (glutamate) activity at its EC80 concentration. Assay of Compounds was performed at Euroscreen SA, Gosselies, Belgium.
(§2) Cells stably transfected with mGlu1 or mGlu5 were grown 18 hours prior to the test in culture medium containing 600 ng/ml doxycycline, then were detached by gentle flushing with PBS-EDTA, recovered by centrifugation and resuspended in “assay buffer” (HBSS, 2.1 mM CaCl2, 3 μg/ml GPT (Glutamate-Pyruvate transaminase), 4 mM MEM Sodium Pyruvate, 0.1% BSA, protease free). Cells were incubated at room temperature for at least 4 h with coelenterazine-h. Dose response curves were performed using mGluR1 cells with the orthosteric agonist glutamate and negative allosteric modulator JNJ16259685. Dose response curves were performed using mGluR5 cells with the orthosteric agonist glutamate and negative allosteric modulator MPEP. For agonist testing, 30 μl of cell suspension were mixed with 30 μl of test compound or reference agonist in a 384-well plate. The resulting emission of light was recorded using the Hamamatsu Functional Drug Screening System 6000 (FDSS 6000). For negative allosteric modulator testing, 60 μl of the resulting cell suspension containing the test compound was mixed with 30 μl of the reference agonist at EC80 following an incubation of 3 min after the first injection. The resulting emission of light was recorded using FDSS 6000. […] Plates also contained the reference agonist at a concentration equivalent to the EC80 obtained during the test validation. Negative allosteric modulator activity of test compound was expressed as a percentage of the stimulation of reference agonist activity at its EC80 concentration.

[3] = tested on: hyperalgesia in partial sciatic nerve ligation rat; assay: partial sciatic nerve ligation (PSN) model of neuropathic pain, paw withdrawal method; assay type: in vivo; set-up: AUC (0-5): unit not given beside the values; details: for % MPE (0-100) 1 hr / Paw withdrawal thresholds (g; raw data) 1 hr / Raw MPE (%) 1 hr / % MPE (0-100) 3 hrs / Paw withdrawal thresholds (g; raw data) 3 hrs / Raw MPE (%) 3 hrs / % MPE (0-100) 5 hrs / Paw withdrawal thresholds (g; raw data) 5 hrs / Raw MPE (%) 5 hrs / % MPE (0-100) 24 hrs / Paw withdrawal thresholds (g; raw data) 24 hrs / Raw MPE (%) 24 hrs / AUC (0-5): PSN Sx rat
Experimental: Briefly, under gas anesthesia, the skin and muscles of the thigh were reflected to expose the sciatic nerve. About one-third to one-half of the cross-sectional area of the nerve was tightly ligated using a 7-0 nylon suture. The incision was closed in layers (suture for muscle, surgical adhesive for skin). […] Treated rats were assayed at 1, 3, 5, and 24 hr using the paw withdrawal method (L. Randall and J. Selitto, 1957, Arch. Int. Pharmacodynam., 111:409-19). […] The Partial sciatic nerve ligation assay was performed at Eurofins/Product Safety Laboratories (Dayton, N.J.).
Animals were housed in cages which conform to the size recommendations in the most recent NIH Guide for the Care and Use of Laboratory Animals. […] The animals were fed Purina Rodent Chow #5012. The animals were acclimated to the facility for 7 days prior to the study. A pre-operative baseline paw withdrawal measure was collected for all rats. […] After recovery, a pre-dosing baseline paw withdrawal threshold was collected for all rats. […] Rats were lightly anesthetized and treated with test article or vehicle. Paw withdrawal thresholds were determined at one, three, five, and 24 hours post dosing. […] Briefly, under gas anesthesia, the skin and muscles of the thigh were reflected to expose the sciatic nerve. About one third to one half of the cross-sectional area of the nerve was tightly ligated using a 7-0 nylon suture. The incision was closed in layers (suture for muscle, surgical adhesive for skin). Test article or vehicle was administered by transcutaneous injection (C. Mestre et al., 1994, J. Pharm. Tox. Meth., 32:197-200). Briefly, the rat was lightly anesthetized and placed to flex the lower lumbar vertebrae. After palpating the vertebral processes, a 26 gauge needle was inserted through a vertebral interspace. The presence of a tail flick was considered validation of the needle placement; the solution was then injected. Paw withdrawal thresholds were assessed using a paw pressure device (L. O. Randall & J. J. Selitto, 1957, Arch. Int. Pharmacodyn., 111:409-19). The behavioral endpoint was defined as paw withdrawal. Data was analyzed by two-way analysis of variance (repeated measures) with Bonferroni tests at individual time points. Paw withdrawal threshold raw values were used for the analysis, and each route of administration was analyzed separately. Vehicle-treated groups were used as the statistical comparison groups.

[4] = target: T1, mGluR1; assay: aequorin calcium assay, negative allosteric modulation of mGluR1; assay type: cell-based; details: aequorin assay, agonist at EC80; 10000 = no activity observed at 10,000 nM
Experimental: as §1, §2

[5] = thiazole derivatives of benzamide, in vitro activity, read-out: binding at mGluR5
[6] = 10 μg intrathecal, group Average (N 6)
[7] = 10 μg intrathecal, individual rat, listed as SND 121
[8] = 49 μg intrathecal, group Average (N 6)
[9] = 49 μg intrathecal, individual rat, listed as SND 121

T1 sequence (Q13255 19-1194): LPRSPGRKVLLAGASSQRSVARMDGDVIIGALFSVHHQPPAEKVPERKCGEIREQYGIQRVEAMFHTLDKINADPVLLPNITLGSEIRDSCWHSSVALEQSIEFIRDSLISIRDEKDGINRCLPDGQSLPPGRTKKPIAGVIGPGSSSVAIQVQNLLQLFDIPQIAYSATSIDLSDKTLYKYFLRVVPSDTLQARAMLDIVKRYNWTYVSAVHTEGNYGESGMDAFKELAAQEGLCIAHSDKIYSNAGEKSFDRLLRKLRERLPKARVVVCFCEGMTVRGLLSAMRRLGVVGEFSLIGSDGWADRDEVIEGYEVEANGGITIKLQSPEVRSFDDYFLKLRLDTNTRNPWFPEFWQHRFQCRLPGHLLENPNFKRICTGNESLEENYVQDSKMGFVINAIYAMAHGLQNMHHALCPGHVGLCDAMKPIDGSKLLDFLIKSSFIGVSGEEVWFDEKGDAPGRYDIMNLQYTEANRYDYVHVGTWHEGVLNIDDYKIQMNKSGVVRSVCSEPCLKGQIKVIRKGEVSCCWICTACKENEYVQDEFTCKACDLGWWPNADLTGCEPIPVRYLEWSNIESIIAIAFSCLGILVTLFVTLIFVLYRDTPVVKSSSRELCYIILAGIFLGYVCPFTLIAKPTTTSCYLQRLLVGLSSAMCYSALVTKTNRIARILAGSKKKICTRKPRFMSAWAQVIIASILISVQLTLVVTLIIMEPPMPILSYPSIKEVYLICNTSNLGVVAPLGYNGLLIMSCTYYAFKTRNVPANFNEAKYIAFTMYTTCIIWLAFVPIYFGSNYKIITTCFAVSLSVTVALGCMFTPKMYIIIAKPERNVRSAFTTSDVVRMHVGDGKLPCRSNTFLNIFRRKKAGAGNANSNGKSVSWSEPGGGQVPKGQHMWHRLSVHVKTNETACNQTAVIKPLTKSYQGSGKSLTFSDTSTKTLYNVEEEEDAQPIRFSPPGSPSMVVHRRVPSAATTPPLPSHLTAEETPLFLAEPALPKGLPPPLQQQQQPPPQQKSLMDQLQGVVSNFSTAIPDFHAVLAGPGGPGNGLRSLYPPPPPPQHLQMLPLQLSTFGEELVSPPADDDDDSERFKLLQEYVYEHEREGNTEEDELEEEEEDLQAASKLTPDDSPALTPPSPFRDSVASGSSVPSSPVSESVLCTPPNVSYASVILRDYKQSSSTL
T2 sequence (P41594 21-1212): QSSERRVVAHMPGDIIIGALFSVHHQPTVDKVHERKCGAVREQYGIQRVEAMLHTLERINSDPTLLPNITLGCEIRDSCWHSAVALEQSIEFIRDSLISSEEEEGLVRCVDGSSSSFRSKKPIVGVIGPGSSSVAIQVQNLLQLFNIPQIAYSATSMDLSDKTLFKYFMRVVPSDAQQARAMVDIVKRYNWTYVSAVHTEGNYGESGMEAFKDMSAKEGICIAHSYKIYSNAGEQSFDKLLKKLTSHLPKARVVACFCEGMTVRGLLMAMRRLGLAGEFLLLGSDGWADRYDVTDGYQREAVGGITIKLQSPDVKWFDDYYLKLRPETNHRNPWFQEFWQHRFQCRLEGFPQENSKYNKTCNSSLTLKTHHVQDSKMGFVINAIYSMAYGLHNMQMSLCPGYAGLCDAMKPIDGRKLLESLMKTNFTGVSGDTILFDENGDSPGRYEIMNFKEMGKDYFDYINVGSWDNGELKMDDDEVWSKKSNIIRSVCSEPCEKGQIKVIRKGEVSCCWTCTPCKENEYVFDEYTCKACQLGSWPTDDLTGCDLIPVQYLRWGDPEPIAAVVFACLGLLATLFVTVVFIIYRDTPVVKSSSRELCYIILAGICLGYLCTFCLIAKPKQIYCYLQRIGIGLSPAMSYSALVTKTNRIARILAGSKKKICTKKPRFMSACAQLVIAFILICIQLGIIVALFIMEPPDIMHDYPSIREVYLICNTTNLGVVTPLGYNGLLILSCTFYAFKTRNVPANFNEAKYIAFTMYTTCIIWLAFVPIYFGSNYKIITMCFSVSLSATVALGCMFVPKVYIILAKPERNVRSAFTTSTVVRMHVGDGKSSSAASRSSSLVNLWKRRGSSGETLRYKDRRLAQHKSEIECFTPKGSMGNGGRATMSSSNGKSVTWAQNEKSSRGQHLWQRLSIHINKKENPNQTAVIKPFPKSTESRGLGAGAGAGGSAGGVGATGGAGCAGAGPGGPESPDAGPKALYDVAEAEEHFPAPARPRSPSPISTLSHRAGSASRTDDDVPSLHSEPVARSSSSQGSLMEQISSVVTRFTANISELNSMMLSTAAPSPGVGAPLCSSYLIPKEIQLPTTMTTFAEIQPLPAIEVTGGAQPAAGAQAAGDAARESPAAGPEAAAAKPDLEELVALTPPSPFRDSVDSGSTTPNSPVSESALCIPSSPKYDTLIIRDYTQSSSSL

## CC(=O)Oc1ccc(Cl)cc1C(=O)Nc1nc([N+](=O)[O-])cs1
[1]
  EC50: 6320 nM
[2]; [5]
  EC50: 2760 nM

## O=C(Nc1nc([N+](=O)[O-])cs1)c1cc(Cl)ccc1O
[1]
  EC50: 1760 nM
[2]; [5]
  EC50: 1250 nM

## O=C(Nc1ccc([N+](=O)[O-])cc1Cl)c1cc(Cl)ccc1O [Compound 1, 5-Chloro-N-(2-chloro-4-nitrophenyl)-2-hydroxybenzamide]
[3]; [6]
  % MPE (0-100) 1 hr: 29.7%
  Paw withdrawal thresholds (g; raw data) 1 hr: 125.8 g
  Raw MPE (%) 1 hr: 31.3%
  % MPE (0-100) 3 hrs: 39.9%
  Paw withdrawal thresholds (g; raw data) 3 hrs: 130.0 g
  Raw MPE (%) 3 hrs: 41.8%
  % MPE (0-100) 5 hrs: 34.7%
  Paw withdrawal thresholds (g; raw data) 5 hrs: 122.5 g
  Raw MPE (%) 5 hrs: 33.6%
  % MPE (0-100) 24 hrs: 28.6%
  Paw withdrawal thresholds (g; raw data) 24 hrs: 117.5 g
  Raw MPE (%) 24 hrs: 33.9%
  AUC (0-5): 159.1
[3]; [7]
  % MPE (0-100) 1 hr: 0.0% (3×) and 6.7% and 100.0% and 71.5%
  Paw withdrawal thresholds (g; raw data) 1 hr: 90 g (2×) and 60 g and 105 g and 250 g and 160 g
  Raw MPE (%) 1 hr: −10.9% (2×) and 6.7% and 177.6% and 71.5%
  % MPE (0-100) 3 hrs: 41.8% and 27.5% and 0.0% (2×) and 100.0% and 70.3%
  Paw withdrawal thresholds (g; raw data) 3 hrs: 130 g and 120 g and 100 g (2×) and 180 g and 150 g
  Raw MPE (%) 3 hrs: 41.8% and 27.5% and −1.0% (2×) and 113.1% and 70.3%
  % MPE (0-100) 5 hrs: 30.3% (2×) and 0.0% and 43.6% and 100.0% and 3.8%
  Paw withdrawal thresholds (g; raw data) 5 hrs: 120 g (2×) and 70 g and 130 g and 195 g and 100 g
  Raw MPE (%) 5 hrs: 30.3% (2×) and −36.0% and 43.6% and 129.9% and 3.8%
  % MPE (0-100) 24 hrs: 44.5% and 16.2% and 2.0% and 9.1% and 100.0% and 0.0%
  Paw withdrawal thresholds (g; raw data) 24 hrs: 125 g and 105 g and 95 g and 100 g and 195 g and 85 g
  Raw MPE (%) 24 hrs: 44.5% and 16.2% and 2.0% and 9.1% and 143.7% and −12.1%
  AUC (0-5): 113.9 and 85.3 and 0.0 and 53.7 and 450.0 and 251.7
[3]; [8]
  % MPE (0-100) 1 hr: 80.7%
  Paw withdrawal thresholds (g; raw data) 1 hr: 199.2 g
  Raw MPE (%) 1 hr: 117.7%
  % MPE (0-100) 3 hrs: 54.2%
  Paw withdrawal thresholds (g; raw data) 3 hrs: 163.3 g
  Raw MPE (%) 3 hrs: 89.3%
  % MPE (0-100) 5 hrs: 31.8%
  Paw withdrawal thresholds (g; raw data) 5 hrs: 119.2 g
  Raw MPE (%) 5 hrs: 29.2%
  % MPE (0-100) 24 hrs: 1.5%
  Paw withdrawal thresholds (g; raw data) 24 hrs: 84.2 g
  Raw MPE (%) 24 hrs: −13.3%
  AUC (0-5): 261.3
[3]; [9]
  % MPE (0-100) 1 hr: 100.0% (4×) and 48.0% and 36.2%
  Paw withdrawal thresholds (g; raw data) 1 hr: 250 g (2×) and 190 g and 140 g and 130 g and 235 g
  Raw MPE (%) 1 hr: 177.6% (2×) and 106.9% and 48.0% and 36.2% and 159.9%
  % MPE (0-100) 3 hrs: 100.0% (2×) and 70.3% and 0.0% and 41.8% and 13.2%
  Paw withdrawal thresholds (g; raw data) 3 hrs: 250 g (2×) and 150 g and 90 g and 130 g and 110 g
  Raw MPE (%) 3 hrs: 212.9% (2×) and 70.3% and −15.3% and 41.8% and 13.2%
  % MPE (0-100) 5 hrs: 100.0% and 43.6% (2×) and 3.8% and 0.0% (2×)
  Paw withdrawal thresholds (g; raw data) 5 hrs: 180 g and 130 g (2×) and 100 g and 80 g and 95 g
  Raw MPE (%) 5 hrs: 110.0% and 43.6% (2×) and 3.8% and −22.7% and −2.8%
  % MPE (0-100) 24 hrs: 0.0% (5×) and 9.1%
  Paw withdrawal thresholds (g; raw data) 24 hrs: 90 g (3×) and 55 g and 100 g and 80 g
  Raw MPE (%) 24 hrs: −5.1% (3×) and −54.6% and 9.1% and −19.2%
  AUC (0-5): 450.0 and 334.2 and 153.8 and 155.5 and 80.8 and 393.6
[3]; 49 μg intrathecal, rat
  effectiveness in model of hyperalgesia vs 100 μg gabapentin: considerably more effective
[3]; 10 or 49 μg intrathecal vs 100 μg gabapentin, rat
  reversing hyperalgesia, compared to gabapentin: essentially as effective or more effective as gabapentin
[4]
  EC50: 38 nM
[2]; aequorin assay, agonist at EC80, 10000 = no activity observed at 10,000 nM, read-out: mGluR5 EC50
  EC50: 62 nM
